Data taken from PubChem BioAssay AID248 (DTP/NCI, 2004).
“And” between values parts separate entries of the source, which are not always exact repeats. Identical values can stand only once. Toxic doses and inconclusive results are not listed. Rule as the data show it: active = T/C of 150% or more; inactive = T/C below 125%.

Test system: L1210 leukemia ip in BDF1 mice, survival T/C
Assay: NCI In Vivo Anticancer Drug Screen. Data for tumor model L1210 Leukemia (intraperitoneal) in B6D2F1 (BDF1) mice
Settings: endpoint: mean survival time, higher = longer survival
Summary of the method: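 Tumor was transplanted into mice, which were then dosed with test compound or vehicle alone. Survival was recorded for each group, and the treated figure was expressed relative to the control figure.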

[1] = dose: 100.0 mg/kg/injection, schedule: Q01DX009 (ip), vehicle: saline
[2] = dose: 200.0 mg/kg/injection, schedule: Q01DX009 (ip), vehicle: saline
[3] = dose: 400.0 mg/kg/injection, schedule: Q01DX009 (ip), vehicle: saline
[4] = dose: 100.0 mg/kg/injection, schedule: Q01DX001 (ip), vehicle: saline
[5] = dose: 200.0 mg/kg/injection, schedule: Q01DX001 (ip), vehicle: saline
[6] = dose: 400.0 mg/kg/injection, schedule: Q01DX001 (ip), vehicle: saline
[7] = dose: 100.0 mg/kg/injection, schedule: Q01DX001 (ip), vehicle: saline with Tween-80
[8] = dose: 200.0 mg/kg/injection, schedule: Q01DX001 (ip), vehicle: saline with Tween-80
[9] = dose: 100.0 mg/kg/injection, schedule: Q04DX002 (ip), vehicle: Klucel (hydroxypropylcellulose) (HPC)
[10] = dose: 200.0 mg/kg/injection, schedule: Q04DX002 (ip), vehicle: Klucel (hydroxypropylcellulose) (HPC)
[11] = dose: 400.0 mg/kg/injection, schedule: Q04DX002 (ip), vehicle: Klucel (hydroxypropylcellulose) (HPC)
[12] = dose: 100.0 mg/kg/injection, schedule: Q04DX003 (ip), vehicle: saline with Tween-80
[13] = dose: 200.0 mg/kg/injection, schedule: Q04DX003 (ip), vehicle: saline with Tween-80
[14] = dose: 100.0 mg/kg/injection, schedule: Q01DX001 (ip), vehicle: Klucel (hydroxypropylcellulose) (HPC)
[15] = dose: 400.0 mg/kg/injection, schedule: Q01DX001 (ip), vehicle: Klucel (hydroxypropylcellulose) (HPC)
[16] = dose: 400.0 mg/kg/injection, schedule: Q04DX003 (ip), vehicle: saline with Tween-80

Measured: T/C

CC12CCCC(O)(CC(=O)C1)C2 (stereo not drawn)
inactive: [1] 93 % of control | dose: 100.0 mg/kg/injection, schedule: Q04DX003 (ip), vehicle: acetone 95 % of control | [2] 95 % of control | dose: 200.0 mg/kg/injection, schedule: Q04DX003 (ip), vehicle: acetone 101 % of control | [3] 91 % of control | dose: 400.0 mg/kg/injection, schedule: Q04DX003 (ip), vehicle: acetone 98 % of control

O=[N+]([O-])c1ccn(O)c(=NC2CCCCC2)c1
inactive: [4] 98 % of control | [5] 93 % of control | [6] 100 % of control

C#CCN1C(=O)C(c2ccccc2)C2(CCN(C)CC2)C1=O (stereo not drawn)
inactive: [7] 105 % of control | [8] 108 % of control

O=C(NCCCN1CC1)C(=O)Nc1ccccc1
inactive: dose: 12.5 mg/kg/injection, schedule: Q04DX003 (ip), vehicle: Klucel (hydroxypropylcellulose) (HPC) 92 % of control | dose: 25.0 mg/kg/injection, schedule: Q04DX003 (ip), vehicle: Klucel (hydroxypropylcellulose) (HPC) 101 % of control

COC(OC)c1[nH]c(=S)[nH]c(=O)c1Cc1cccc(Cl)c1
inactive: [1] 100 % of control | [3] 113 % of control

FC(F)(F)c1ccccc1NC(=S)N(Cc1ccccc1)Cc1ccccc1
inactive: dose: 100.0 mg/kg/injection, schedule: Q01DX009 (ip), vehicle: Klucel (hydroxypropylcellulose) (HPC) 92 % of control | [9] 110 % of control | dose: 200.0 mg/kg/injection, schedule: Q01DX009 (ip), vehicle: Klucel (hydroxypropylcellulose) (HPC) 103 % of control | [10] 92 % of control | dose: 400.0 mg/kg/injection, schedule: Q01DX009 (ip), vehicle: Klucel (hydroxypropylcellulose) (HPC) 96 % of control | [11] 100 % of control

CC1=CC(=O)C(C)(C(Cl)Cl)C=C1 (stereo not drawn)
inactive: [12] 95 % of control | [13] 97 % of control

COc1ccc(C(=O)CC2(O)C(=O)Nc3ccc(Br)cc32)cc1 (stereo not drawn)
inactive: [9] 92 % of control | [10] 89 % of control | [11] 92 % of control

CN1c2ccccc2C(C)(C)C12C=Cc1cc([N+](=O)[O-])cc([N+](=O)[O-])c1O2 (stereo not drawn)
inactive: [14] 105 % of control | dose: 200.0 mg/kg/injection, schedule: Q01DX001 (ip), vehicle: Klucel (hydroxypropylcellulose) (HPC) 105 % of control | [15] 97 % of control

CC(C)CCCC(C)C1CCC2C3CC=C4CC(OCCCl)CCC4(C)C3CCC12C (stereo not drawn)
inactive: [12] 96 % of control | [13] 96 % of control | [16] 93 % of control

N#Cc1ccc(-c2ccccc2)cc1
inactive: dose: 50.0 mg/kg/injection, schedule: Q04DX002 (ip), vehicle: other 103 % of control | dose: 100.0 mg/kg/injection, schedule: Q04DX002 (ip), vehicle: other 95 % of control | dose: 200.0 mg/kg/injection, schedule: Q04DX002 (ip), vehicle: other 117 % of control

COc1ccc(O)c(CCCO)c1
inactive: dose: 50.0 mg/kg/injection, schedule: Q01DX001 (ip), vehicle: saline 104 % of control | [4] 95 % of control | [5] 112 % of control | [6] 95 % of control

O=C(Nc1ccc(F)cc1)Nc1cc([N+](=O)[O-])ccc1F
inactive: dose: 100.0 mg/kg/injection, schedule: Q04DX003 (ip), vehicle: Klucel (hydroxypropylcellulose) (HPC) 117 % of control | dose: 200.0 mg/kg/injection, schedule: Q04DX003 (ip), vehicle: Klucel (hydroxypropylcellulose) (HPC) 102 % of control | dose: 400.0 mg/kg/injection, schedule: Q04DX003 (ip), vehicle: Klucel (hydroxypropylcellulose) (HPC) 101 % of control

Cc1cc(NC(C)C)c(C)cc1NC(C)C
inactive: dose: 12.5 mg/kg/injection, schedule: Q04DX002 (ip), vehicle: Klucel (hydroxypropylcellulose) (HPC) 93 % of control | dose: 25.0 mg/kg/injection, schedule: Q04DX002 (ip), vehicle: Klucel (hydroxypropylcellulose) (HPC) 96 % of control

CC12CCC(=O)C=C1CCC1C2C(O)CC2(C)C1CCC2(O)C(=O)CSc1ccc(N(CCCl)CCCl)cc1 (stereo not drawn)
inactive: dose: 100.0 mg/kg/injection, schedule: Q01DX001 (sc), vehicle: steriod suspending solution 92 % of control | dose: 200.0 mg/kg/injection, schedule: Q01DX001 (sc), vehicle: steriod suspending solution 100 % of control | dose: 400.0 mg/kg/injection, schedule: Q01DX001 (sc), vehicle: steriod suspending solution 103 % of control

S=C(Cc1ccc2ccccc2c1)N1CCOCC1
inactive: dose: 25.0 mg/kg/injection, schedule: Q01DX009 (ip), vehicle: saline sonified 94 % of control | dose: 50.0 mg/kg/injection, schedule: Q01DX009 (ip), vehicle: saline sonified 100 % of control | [7] 105 % of control | dose: 100.0 mg/kg/injection, schedule: Q01DX009 (ip), vehicle: saline sonified 96 % of control

CCCCC(/C=N\NC(=O)c1ccc[n+](C)c1)=C/c1ccccc1
inactive: [7] 96 % of control | [8] 102 % of control

O=C(CBr)OCS(=O)(=O)O
inactive: dose: 75.0 mg/kg/injection, schedule: Q01DX001 (ip), vehicle: saline 102 % of control | dose: 150.0 mg/kg/injection, schedule: Q01DX001 (ip), vehicle: saline 96 % of control | dose: 300.0 mg/kg/injection, schedule: Q01DX001 (ip), vehicle: saline 100 % of control

O=C(c1ccc(O)cc1O)c1ccc(O)cc1O
inactive: dose: 50.0 mg/kg/injection, schedule: Q04DX002 (ip), vehicle: gum acacia 114 % of control | dose: 100.0 mg/kg/injection, schedule: Q04DX002 (ip), vehicle: gum acacia 104 % of control | dose: 200.0 mg/kg/injection, schedule: Q04DX002 (ip), vehicle: gum acacia 86 % of control

[N-]=[N+]=C1N=C(Cl)N=C1c1ncn[nH]1
inactive: dose: 25.0 mg/kg/injection, schedule: Q01DX001 (ip), vehicle: Klucel (hydroxypropylcellulose) (HPC) 97 % of control | dose: 50.0 mg/kg/injection, schedule: Q01DX001 (ip), vehicle: Klucel (hydroxypropylcellulose) (HPC) 108 % of control | [14] 102 % of control and 112 % of control | [15] 112 % of control

CC1(/C=N/Nc2nnc(N/N=C/C3(C)CCC=CO3)c3ccccc23)CCC=CO1 (stereo not drawn)
inactive: dose: 50.0 mg/kg/injection, schedule: Q01DX001 (ip), vehicle: carboxymethylcellulose (CMC) 106 % of control | dose: 100.0 mg/kg/injection, schedule: Q01DX001 (ip), vehicle: carboxymethylcellulose (CMC) 104 % of control | dose: 200.0 mg/kg/injection, schedule: Q01DX001 (ip), vehicle: carboxymethylcellulose (CMC) 87 % of control

CC(=O)c1nnn(-c2ccccc2)n1
inactive: dose: 100.0 mg/kg/injection, schedule: Q01DX001 (ip), vehicle: other 95 % of control and 109 % of control | dose: 200.0 mg/kg/injection, schedule: Q01DX001 (ip), vehicle: other 95 % of control and 101 % of control | dose: 400.0 mg/kg/injection, schedule: Q01DX001 (ip), vehicle: other 101 % of control

Nc1ccc2[nH]ncc2c1
inactive: [12] 102 % of control | [13] 102 % of control | [16] 110 % of control

S=C(NCc1ccccc1)[S][Sn]([S]C(=S)NCc1ccccc1)([c]1ccccc1)[c]1ccccc1
inactive: dose: 5.0 mg/kg/injection, schedule: Q01DX001 (ip), vehicle: steriod suspending solution 98 % of control | dose: 10.0 mg/kg/injection, schedule: Q01DX001 (ip), vehicle: steriod suspending solution 97 % of control | dose: 20.0 mg/kg/injection, schedule: Q01DX001 (ip), vehicle: steriod suspending solution 106 % of control

Cn1c(=O)c2c(ncn2CCO)n(C)c1=O
inactive: [4] 100 % of control | [1] 99 % of control | dose: 100.0 mg/kg/injection, schedule: Q04DX003 (ip), vehicle: saline 104 % of control | [5] 104 % of control | [2] 100 % of control | dose: 200.0 mg/kg/injection, schedule: Q04DX003 (ip), vehicle: saline 101 % of control | [6] 102 % of control | [3] 105 % of control | dose: 400.0 mg/kg/injection, schedule: Q04DX003 (ip), vehicle: saline 100 % of control

CCN1/C(=C/C(C)=C/c2[se]c3ccccc3[n+]2CC)[Se]c2ccc(OC)cc21
inactive: dose: 5.0 mg/kg/injection, schedule: Q01DX001 (ip), vehicle: saline 105 % of control | dose: 10.0 mg/kg/injection, schedule: Q01DX001 (ip), vehicle: saline 100 % of control | dose: 20.0 mg/kg/injection, schedule: Q01DX001 (ip), vehicle: saline 97 % of control | dose: 40.0 mg/kg/injection, schedule: Q01DX001 (ip), vehicle: saline 100 % of control
